Tests used:
Conditions in all cases: 72 h
[1] = system: Caco-2; experiment: cell viability relative to DMSO; higher = less toxic
[2] = system: U2OS; experiment: as above
[3] = system: HepG2; experiment: as above
[4] = system: Vero E6; experiment: as above
[5] = system: U2OS; experiment: relative viability EC50 (midpoint between 100% and the lowest measured viability); higher = less toxic
[6] = system: HepG2; experiment: as above
[7] = system: Vero E6; experiment: as above
[8] = system: Caco-2; experiment: drug sensitivity score (DSS) for viability; higher = more toxic; extreme values may be limits of the assay
[9] = system: U2OS; experiment: as above
[10] = system: HepG2; experiment: as above
[11] = system: Vero E6; experiment: as above
[12] = system: Calu-3; experiment: cell viability relative to DMSO; higher = less toxic
[13] = system: Calu-3; experiment: relative viability EC50 (midpoint between 100% and the lowest measured viability); higher = less toxic
[14] = system: Calu-3; experiment: drug sensitivity score (DSS) for viability; higher = more toxic; extreme values may be limits of the assay
[15] = system: Caco-2; experiment: relative viability EC50 (midpoint between 100% and the lowest measured viability); higher = less toxic

| Compound | cell viability ([1]; 1 nM) [%] | cell viability ([1]; 10 nM) [%] | cell viability ([1]; 100 nM) [%] | cell viability ([1]; 1000 nM) [%] | cell viability ([1]; 10000 nM) [%] | cell viability ([2]; 1 nM) [%] | cell viability ([2]; 10 nM) [%] | cell viability ([2]; 100 nM) [%] | cell viability ([2]; 1000 nM) [%] | cell viability ([2]; 10000 nM) [%] | cell viability ([3]; 1 nM) [%] | cell viability ([3]; 10 nM) [%] | cell viability ([3]; 100 nM) [%] | cell viability ([3]; 1000 nM) [%] | cell viability ([3]; 10000 nM) [%] | cell viability ([4]; 1 nM) [%] | cell viability ([4]; 10 nM) [%] | cell viability ([4]; 100 nM) [%] | cell viability ([4]; 1000 nM) [%] | cell viability ([4]; 10000 nM) [%] | relative viability EC50 [5] [µM] | relative viability EC50 [6] [µM] | relative viability EC50 [7] [µM] | drug sensitivity score [8] | drug sensitivity score [9] | drug sensitivity score [10] | drug sensitivity score [11] | cell viability ([12]; 1 nM) [%] | cell viability ([12]; 10 nM) [%] | cell viability ([12]; 100 nM) [%] | cell viability ([12]; 1000 nM) [%] | cell viability ([12]; 10000 nM) [%] | relative viability EC50 [13] [µM] | drug sensitivity score [14] | relative viability EC50 [15] [µM] |
| --- | --- | --- | --- | --- | --- | --- | --- | --- | --- | --- | --- | --- | --- | --- | --- | --- | --- | --- | --- | --- | --- | --- | --- | --- | --- | --- | --- | --- | --- | --- | --- | --- | --- | --- | --- |
| CN1C(=O)CC[C@H]1c1cccnc1 [cotinine] | 71.1 | 74.2 | 84.3 | 83 | 106 | 94.7 | 97.2 | 92.9 | 95.7 | 102 | 104 | 99.4 | 106 | 105 | 96.2 | 95.9 | 92.8 | 94 | 95.7 | 106 | > 10 | > 10 | > 10 | 5.4 | 0 | 0 | 0 | – | – | – | – | – | – | – | – |
| Cc1c2oc3c(C)ccc(C(=O)N[C@@H]4C(=O)N[C@H](C(C)C)C(=O)N5CCC[C@H]5C(=O)N(C)CC(=O)N(C)[C@@H](C(C)C)C(=O)O[C@@H]4C)c3nc-2c(C(=O)N[C@@H]2C(=O)N[C@H](C(C)C)C(=O)N3CCC[C@H]3C(=O)N(C)CC(=O)N(C)[C@@H](C(C)C)C(=O)O[C@@H]2C)c(N)c1=O [dactinomycin] | 108 | 83.7 | 54.8 | 63.4 | 57.4 | 98.8 | 74.2 | 34.2 | 1.1 | 1.3 | 99 | 42.5 | 15.8 | 4.4 | 4.1 | 101 | 104 | 91.9 | 3.5 | 8.7 | 0.0387 | 0.0079 | 0.248 | 16.4 | 27.7 | 35.8 | 18.7 | 99.5 | 75 | 41 | 29.7 | 37.4 | 0.0187 | 22.9 | – |
| CON(C)C(=O)N1N=C(c2cc(F)ccc2F)S[C@@]1(CCCN)c1ccccc1 [filanesib] | 96.7 | 76.6 | 68.7 | 68.4 | 62.1 | 98.2 | 97.8 | 50.8 | 43.5 | 43.8 | 98 | 50 | 35.1 | 34.1 | 34.4 | 106 | 81.9 | 45.1 | 46.4 | 40.7 | 0.0424 | 0.0056 | 0.0172 | 12.9 | 16.7 | 26.8 | 20.2 | 97 | 104 | 87.8 | 88.1 | 79.3 | > 10 | 2 | – |
| CC(C)C[C@H](NC(=O)[C@@H](COC(C)(C)C)NC(=O)[C@H](Cc1ccc(O)cc1)NC(=O)[C@H](CO)NC(=O)[C@H](Cc1c[nH]c2ccccc12)NC(=O)[C@H](Cc1cnc[nH]1)NC(=O)[C@@H]1CCC(=O)N1)C(=O)N[C@@H](CCCNC(=N)N)C(=O)N1CCC[C@H]1C(=O)NNC(N)=O [goserelin-acetate] | 96.9 | 106 | 96.6 | 73.5 | 94.1 | 107 | 101 | 99.2 | 98.7 | 96.7 | 108 | 92.9 | 100 | 92.1 | 98.7 | 91 | 104 | 104 | 95.3 | 88.7 | > 10 | > 10 | > 10 | 0.6 | 0 | 0 | 0.1 | 99.4 | 97.7 | 96.1 | 95.4 | 104 | > 10 | 0 | – |
| COc1ccccc1OC(=O)c1ccccc1OC(C)=O [guacetisal] | – | – | – | – | – | 97.3 | 96.8 | 99.2 | 104 | 99 | 97.1 | 115 | 104 | 104 | 88.4 | 101 | 105 | 101 | 102 | 98.9 | > 10 | > 10 | > 10 | – | 0 | 0 | 0 | 105 | 90.9 | 108 | 102 | 97.4 | > 10 | 0 | – |
| CC(C)(C)NC(=O)[C@@H]1CN(Cc2cccnc2)CCN1C[C@@H](O)C[C@@H](Cc1ccccc1)C(=O)N[C@H]1c2ccccc2C[C@H]1O [indinavir] | – | – | – | – | – | 98.4 | 98.2 | 92.5 | 103 | 93.5 | 99.4 | 88.7 | 109 | 93.3 | 79.8 | 117 | 78 | 97.6 | 104 | 89.9 | > 10 | > 10 | > 10 | – | 0 | 1.4 | 0 | 97 | 107 | 98.4 | 102 | 97.9 | > 10 | 0 | – |
| CCN1C[C@]2(OC(=O)c3ccccc3NC(C)=O)CC[C@H](OC)[C@@]34[C@@H]2C[C@@H]([C@@H]13)[C@@]1(O)C[C@H](OC)[C@H]2C[C@@H]4[C@]1(O)[C@H]2OC [lappaconite] | 87.7 | 99 | 85.5 | 95.2 | 89.8 | 103 | 103 | 98.1 | 99.1 | 94.4 | 101 | 97.1 | 103 | 100 | 107 | – | – | – | – | – | > 10 | > 10 | – | 0 | 0 | 0 | – | 103 | 86.1 | 94.1 | 102 | 106 | > 10 | 0 | > 10 |
| CC[C@@H](C(N)=O)N1CCCC1=O [levetiracetam] | 96.2 | 91.6 | 100 | 95.2 | 101 | 103 | 98.2 | 101 | 97.2 | 103 | 93.2 | 105 | 90 | 104 | 92 | – | – | – | – | – | > 10 | > 10 | – | 0 | 0 | 0 | – | 87.4 | 91.8 | 98.6 | 103 | 103 | > 10 | 0 | > 10 |
| O=NN(CCCl)C(=O)NC1CCCCC1 [lomustine] | 89.7 | 78.5 | 101 | 93.2 | 59 | 98.5 | 97.1 | 97.5 | 102 | 94 | 102 | 95 | 99.2 | 104 | 98.7 | 97.9 | 99.1 | 99.6 | 92.4 | 94.6 | > 10 | > 10 | > 10 | 3.2 | 0 | 0 | 0 | 87.1 | 102 | 88.9 | 104 | 96.1 | > 10 | 0 | – |
| CC(=O)Oc1ccccc1C(=O)Nc1ncc([N+](=O)[O-])s1 [nitazoxanide] | 97.3 | 98.8 | 102 | 104 | 61.7 | 99.2 | 98.5 | 101 | 93.3 | 91.4 | 97.1 | 95.6 | 94.5 | 91 | 65.3 | 98.2 | 98.7 | 106 | 102 | 96.9 | > 10 | – | > 10 | 1.6 | 0 | 2.8 | 0 | 102 | 103 | 107 | 99.1 | 98.8 | > 10 | 0 | – |
| CN1CCN(c2cccc3[nH]c(=O)oc23)CC1 [pardoprunox] | 102 | 101 | 96.4 | 90.6 | 100 | 106 | 99.3 | 102 | 95.3 | 101 | 90.7 | 105 | 89.1 | 99.2 | 97.3 | – | – | – | – | – | > 10 | > 10 | – | 0 | 0 | 0 | – | 95.8 | 93.2 | 102 | 107 | 99.1 | > 10 | 0 | > 10 |
| O=C(/C=C/C=C/c1ccc2c(c1)OCO2)N1CCCCC1 [piperine] | 94.4 | 106 | 96.6 | 97.4 | 70.9 | 95.1 | 97.6 | 91.2 | 102 | 97.8 | 93.7 | 91.8 | 86.7 | 84.6 | 95.9 | 108 | 102 | 109 | 92.5 | 93.2 | > 10 | > 10 | > 10 | 1.6 | 0 | 0 | 0 | 92.4 | 103 | 101 | 106 | 90.1 | > 10 | 0 | – |
| CCCOc1ccc2c(c1)CC[C@@H]1[C@@H]2CC[C@]2(C)[C@@H](OC)CC[C@@H]12 [promestriene] | 97.9 | 97.4 | 97.7 | 90.4 | 98.5 | 93.5 | 105 | 96.2 | 96.5 | 99.9 | 102 | 107 | 103 | 93 | 97.9 | – | – | – | – | – | > 10 | > 10 | – | 0 | 0 | 0 | – | 99 | 90.9 | 97.5 | 92.3 | 104 | > 10 | 0 | > 10 |
| CCC(=O)NC[C@@H]1C[C@H]1c1cccc2c1CCO2 [tasimelteon] | 97.9 | 92.1 | 90.6 | 98 | 99.4 | 92.8 | 103 | 93.9 | 93.6 | 102 | 108 | 107 | 102 | 106 | 98.5 | – | – | – | – | – | > 10 | > 10 | – | 0 | 0 | 0 | – | 91.1 | 103 | 91.9 | 103 | 103 | > 10 | 0 | > 10 |

Source: the supplement of paper PMC13380429
